Laboratory results taken from patent publication US20250019385A1, “SPIROCYCLIC ANNULATED 2-AMINO-3-CYANO THIOPHENES AND DERIVATIVES FOR THE TREATMENT OF CANCER” (Boehringer Ingelheim International GmbH, priority 2023, published 2025).

Legend:
[1] = molecular target: KRAS (G12D)::CRAF protein::protein interaction (Homo sapiens (Human), UniProt P01116, G12D); experiment: KRAS TR-FRET assay (KRAS G12D::CRAF, GTP); type: binding
Protocol: (§1) This assay measures the inhibitory effect of compounds on KRAS::CRAF protein::protein interactions in the presence of GTP using Time-resolved fluorescence energy transfer (TR-FRET).
(§2) The following wildtype or mutant alleles of KRAS and CRAF protein have been used at the given concentrations:
KRAS (G12D) 1-169, N-terminal 6His-tag, C-terminal avi-tag (Xtal BioStructures, Inc.); final assay concentration 15 nM,
(§3) CRAF Ras binding domain, GST-tag, TEV cleavage site (Boehringer Ingelheim in house protein prep); final assay concentration 15 nM.
(§4) Test compounds dissolved in DMSO were dispensed onto assay plates (Proxiplate 384 PLUS, white, PerkinElmer; 6008289) using an Access Labcyte Workstation with the Labcyte Echo 55x. For the chosen highest assay concentration of 100 μM, 150 nl of compound solution was transferred from a 10 mM DMSO compound stock solution. A series of eleven fivefold dilutions per compound was transferred to the assay plate, compound dilutions were tested in duplicates. DMSO was added as backfill to a total volume of 150 nl.
(§5) The assay runs on a fully automated robotic system. To 150 nl of compound dilution 15 μl of a mix including the respective KRAS allele, CRAF (e.g. KRAS (G12D)::CRAF; final assay concentrations see above), GTP nucleotide (Sigma G8877; final assay concentration 10 μM), Lance Eu—W1024 labeled Streptavidin (PerkinElmer, Cat No AD0063; final assay concentration 1.5 nM) and Anti-GST surelight APC (PerkinElmer, Cat No AD0059G; final assay concentration 30 nM) in assay buffer (1×PBS, 0.1% BSA, 0.05% Tween 20) are added into columns 1-23 and 15 μL of the solution without the respective KRAS allele were added to row 24.
(§6) Plates are kept at room temperature in a darkened incubator. After 60 minutes incubation time the signal is measured in a PerkinElmer Envision HTS Multilabel Reader using the TR-FRET LANCE Ultra specs from PerkinElmer.
(§7) Each plate contains 16 wells of a negative control (diluted DMSO instead of test compound; w respective KRAS allele; column 23) and 16 wells of a positive control (diluted DMSO instead of test compound; w/o respective KRAS allele; column 24).
(§8) IC50 values were calculated and analyzed with Boehringer Ingelheim's MEGALAB 50 application using a 4 parametric logistic model.
(§9) Tables of example compounds disclosed herein contain IC50 values determined using the above assays (see Table 44).

[2] = molecular target: KRAS (G12V)::CRAF protein::protein interaction (Homo sapiens (Human), UniProt P01116, C118S/G12V); experiment: KRAS TR-FRET assay (KRAS G12V::CRAF, GTP); type: binding
Chain of KRAS (G12V)::CRAF protein::protein interaction (P01116 other isoform, or with tags, fused parts or gaps G12V/C118S): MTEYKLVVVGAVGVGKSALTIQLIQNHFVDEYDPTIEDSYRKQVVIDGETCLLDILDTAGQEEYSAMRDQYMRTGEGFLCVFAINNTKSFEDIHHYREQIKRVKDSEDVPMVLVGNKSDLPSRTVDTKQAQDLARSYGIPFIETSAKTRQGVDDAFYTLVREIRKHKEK
Protocol: as §1, §2
KRAS (G12V) 1-169, C118S, N-terminal 6His-tag, C-terminal avi-tag (Boehringer Ingelheim in house protein prep); final assay concentration 15 nM.
as §3, §4, §5, §6, §7, §8, §9

[3] = molecular target: KRAS (WT)::CRAF protein::protein interaction (Homo sapiens (Human), UniProt P01116); experiment: KRAS TR-FRET assay (KRAS WT::CRAF, GTP); type: binding
Chain of KRAS (WT)::CRAF protein::protein interaction (P01116 other isoform, or with tags, fused parts or gaps): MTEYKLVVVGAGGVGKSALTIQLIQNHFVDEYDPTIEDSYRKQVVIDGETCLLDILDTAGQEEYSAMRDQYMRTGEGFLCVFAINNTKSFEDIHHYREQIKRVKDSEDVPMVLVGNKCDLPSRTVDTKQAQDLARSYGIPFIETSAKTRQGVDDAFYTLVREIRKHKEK
Protocol: as §1, §2
KRAS (WT) 1-169, N-terminal 6His-tag, C-terminal avi-tag (Boehringer Ingelheim in house protein prep); final assay concentration 15 nM.
as §3, §4, §5, §6, §7, §8, §9

CYP3A4 = CYP3A4 (Homo sapiens (Human), UniProt P08684); experiment: Mechanism based inhibition of CYP3A4 assay (MBI 3A4); type: in vitro ADME; conditions: human liver microsomes, 25 uM compound; hydroxy-midazolam formation after 30 min preincubation relative to 0 min
Chain of CYP3A4 (P08684 whole entry): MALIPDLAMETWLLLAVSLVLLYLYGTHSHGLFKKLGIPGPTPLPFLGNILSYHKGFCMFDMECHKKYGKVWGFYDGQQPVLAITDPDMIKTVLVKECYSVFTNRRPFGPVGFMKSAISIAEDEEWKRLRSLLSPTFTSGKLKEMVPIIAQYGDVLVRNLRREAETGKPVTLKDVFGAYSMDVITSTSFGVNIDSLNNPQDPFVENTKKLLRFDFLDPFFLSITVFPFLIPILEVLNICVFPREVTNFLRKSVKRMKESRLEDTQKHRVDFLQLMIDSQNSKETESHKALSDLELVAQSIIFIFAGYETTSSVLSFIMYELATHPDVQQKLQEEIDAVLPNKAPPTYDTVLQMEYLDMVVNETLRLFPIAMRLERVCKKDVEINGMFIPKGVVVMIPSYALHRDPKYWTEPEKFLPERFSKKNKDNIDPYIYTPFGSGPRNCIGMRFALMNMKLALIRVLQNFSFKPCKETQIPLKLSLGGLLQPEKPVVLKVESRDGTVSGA
Protocol: The time dependent inhibition towards CYP3A4 is assayed in human liver microsomes (0.02 mg/mL) with midazolam (15 μM) as a substrate. The test compounds and water control (wells w/o test compound) are preincubated in presence of NADPH (1 mM) with human liver microsomes (0.2 mg/mL) at a concentration of 25 uM for 0 min and 30 min. After preincubation, the incubate is diluted 1:10 and the substrate midazolam is added for the main incubation (15 min). The main incubation is quenched with acetonitrile and the formation of hydroxy-midazolam is quantified via LC/MS-MS. The formation of hydroxy-midazolam from the 30 min preincubation relative to the formation from the 0 min preincubation is used as a readout. Values of less than 100% mean that the substrate midazolam is metabolized to a lower extent upon 30 min preincubation compared to 0 min preincubation. In general low effects upon 30 min preincubation are desired (corresponding to values close to 100%/not different to the values determined with water control).

Caco-2 cell monolayers = experiment: Caco-2 assay (permeability and efflux ratio); type: in vitro ADME; conditions: 10 μM
Protocol: (§10) The assay provides information on the potential of a compound to pass the cell membrane, on the extent of oral absorption as well as on whether the compound is actively transported by uptake and/or efflux transporters. Permeability measurements across polarized, confluent Caco-2 cell monolayers grown on permeable filter supports (Corning, catalog #3391) are used. 10 μM test compound solution in assay buffer (128.13 mM NaCl, 5.36 mM KCl, 1 mM MgSO4, 1.8 mM CaCl2), 4.17 mM NaHCO3, 1.19 mM Na2HPO4, 0.41 mM NaH2PO4, 15 mM 2-[4-(2-hydroxyethyl)piperazin-1-yl]ethanesulfonic acid (HEPES), 20 mM glucose, pH 7.4) was added to the donor compartment of the cell chamber containing a monolayer of Caco-2 cells in between the donor and the receiver compartment. The receiver and donor compartments contain 0.25% bovine serum albumine (BSA) in assay buffer. Passive diffusion and/or active transport of compounds across the monolayer is measured in both apical to basolateral (a-b) and basolateral to apical (b-a) direction. a-b permeability (PappAB) represents drug absorption from the intestine into the blood and b-a permeability (PappBA) drug secretion from the blood back into the intestine via both passive permeability as well as active transport mechanisms mediated by efflux and uptake transporters that are expressed on the Caco-2 cells. After a pre-incubation of 25-30 min at 37° C., at predefined time points (0, 30, 60 and 90 min), samples were taken from the receiver and donor compartment, respectively. Concentrations of test compounds in samples were measured by HPLC/MS/MS, samples from the donor compartment were diluted 1:50 (v:v) with assay buffer, samples from receiver compartment were measured without dilution.
(§11) Apparent permeabilities in a-b (PappAB) and b-a (PappBA) directions are calculated according to the formula:
(§12) [formula] • Vrec [mL]: buffer volume in receiver compartment • Cdon [μmol/mL]: concentration of test compound in donor compartment at t=0 • ΔCrec: difference between concentrations of test compound in receiver compartment at start and end of incubation time • Δt: Incubation time • Vrec·ΔCrec/Δt [μmol/min]: Amount of compound transferred to receiver compartment per time • A [cm^2]: filter surface
(§13) Caco-2 efflux ratios (ER) are calculated as the ratio of PappBA/PappAB.

[4] = Caco-2 assay (permeability and efflux ratio); type: in vitro ADME; conditions: human; for Papp A→B at 90 min, 10 μM: Caco-2 apical to basolateral permeability, pH 7.4, read-out: Caco PappAB; for efflux ratio at 90 min, 10 μM: pH 7.4, Caco-2 efflux ratio PappBA/PappAB, read-out: Caco ER
Protocol: as §10, §11, §12, §13

Chain of KRAS (G12D)::CRAF protein::protein interaction (P01116 other isoform, or with tags, fused parts or gaps G12D): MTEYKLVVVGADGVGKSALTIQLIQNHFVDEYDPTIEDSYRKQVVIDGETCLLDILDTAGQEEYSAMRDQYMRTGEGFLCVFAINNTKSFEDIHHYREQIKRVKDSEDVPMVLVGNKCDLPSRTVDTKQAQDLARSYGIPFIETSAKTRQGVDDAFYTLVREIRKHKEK

Compound `C[C@H](Oc1nc(-c2noc3c2CCC[C@@]32CCCc3sc(N)c(C#N)c32)nc2c1CC[C@]21CNCCO1)[C@@H]1C[C@@H](F)CN1C` [II-20] has an IC50 [1] of 0.082 µM, an IC50 [2] of 0.129 µM and an IC50 [3] of 0.815 µM. The “MBI 3A4” value (CYP3A4) was 95%, the “Caco PappAB” value (Caco-2 cell monolayers; Caco-2 apical to basolateral permeability, pH 7.4) was 3 nm/s and the “Caco ER” value (Caco-2 cell monolayers; Caco-2 efflux ratio PappBA/PappAB) was 303.8.
For `C[C@H](Oc1nc(-c2onc3c2CCC[C@@]32CCCc3sc(N)c(C#N)c32)nc2c1[nH]c(=O)n2[C@@H]1CCOC1)[C@@H]1CCCN1C` [I-8], the IC50 [1] was 0.047 µM, the IC50 [2] was 0.02 µM and the IC50 [3] was 0.045 µM. For the same compound, the “MBI 3A4” value (CYP3A4) was 61%, the Papp A→B at 90 min, 10 μM [4] was 8 nm/s and the efflux ratio at 90 min, 10 μM [4] was 46.3.
With `C[C@H](Oc1nc(-c2noc3c2CCC[C@@]32CCCc3sc(N)c(C#N)c32)nc2c1CCO[C@]21CCOC1)[C@@H]1CCCN1C` [II-9b] the IC50 [1] was 0.117 µM, the IC50 [2] was 0.035 µM and the IC50 [3] was 0.08 µM. For the same compound, the “MBI 3A4” value (CYP3A4) was 101%, the Papp A→B at 90 min, 10 μM [4] was 250 nm/s and the efflux ratio at 90 min, 10 μM [4] was 1.8.
`C[C@H](Oc1nc(-c2onc3c2CCC[C@@]32CCCc3sc(N)c(C#N)c32)nc2c1n(C)c(=O)n2[C@H]1CCOC1)[C@@H]1CCCN1C` [I-9] showed an IC50 [1] of 0.418 µM, an IC50 [2] of 0.199 µM and an IC50 [3] of 0.611 µM. The “MBI 3A4” value (CYP3A4) was 83%, the Papp A→B at 90 min, 10 μM [4] was 200 nm/s and the efflux ratio at 90 min, 10 μM [4] was 2.7.
Work on `C[C@H](Oc1nc(-c2noc3c2CCC[C@@]32CCCc3sc(N)c(C#N)c32)nc2c1COC[C@]21CCOC1)[C@@H]1CCCN1C` [II-8] yielded an IC50 [1] of 0.017 µM, an IC50 [2] of 0.011 µM and an IC50 [3] of 0.024 µM. The “MBI 3A4” value (CYP3A4) was 85%, the Papp A→B at 90 min, 10 μM [4] was 230 nm/s and the efflux ratio at 90 min, 10 μM [4] was 1.6.
In the case of `C[C@H](Oc1nc(-c2onc3c2CCC[C@@]32CCCc3sc(N)c(C#N)c32)nc2c1n(C)c(=O)n2[C@@H]1CCOC1)[C@@H]1CC[C@H](C)N1C` [I-26], the IC50 [1] is reported as 0.058 µM, the IC50 [2] is reported as 0.022 µM and the IC50 [3] is reported as 0.05 µM. For the same compound, the “MBI 3A4” value (CYP3A4) was 83%, the Papp A→B at 90 min, 10 μM [4] was 430 nm/s and the efflux ratio at 90 min, 10 μM [4] was 1.
